A short description of data set [1]: Pharmacokinetics of topotecan and pazopanib in non-tumor bearing animals. The format is in vivo, mice. How it is done: Non-tumor bearing animals were randomized into four groups (n=3): Control, PZ, TP and TP+PZ. The doses of the drugs were the same as for the inguinal xenograft and metastatic models described above.
After single drug administration, the saphenous vein blood samples (30 μl) were collected in heparinized microcentrifuge tubes at 30 min, 1 h, 2 h, 4 h, 8 h, 12 h, 18 h and 24 h as per the Lab Animal Services protocol. Plasma was immediately isolated after blood collection by centrifugation. For the topotecan assay, 10 μl plasma was immediately precipitated with 20 μl methanol and centrifuged. The supernatant and rest of the plasma were stored at […] until analysis.
30 μl of supernatant was injected into the HPLC system, which consisted of Phenomenox C18 (Luna; 150×4.6 mm; particle size 5 microns) column, UV detector (267 nm). The mobile phase was 50:50 mixture of 10 mM potassium phosphate and methanol, with flow rate 1.0 ml/min. The calibration standards were 5, 10, 50, 100 and 200 μg/ml.
Assay of topotecan: Prior to analysis, the previously prepared 20 μl methanolic extract was mixed with 50 μl of internal standard solution (5 ng/ml d6 topotecan dissolved 1% formic acid in acetonitrile). The mixture was then centrifuged and the supernatant was transferred to auto-sampler vials.
The LC/MS system consisted of an HPLC (Agilent Infinity 1290), Column (Kinetex HILIC, 2.6u, 100A, 50×4.6 mm) and a mass spectrometer (Sciex 5500-QTrap). The analytes were eluted by gradient flow. Mobile phase A was water:actonitrile (10:90) and mobile phase B was 10 mM ammonium acetate (pH 3.2). The mobile phase ratio was 5% A for 0-2 min, 20% A for 4-6 min and 5% A for 8-10 min at a flow rate 0.5 ml/min. The samples were analyzed by positive ion electrospray ionization technique in multiple reaction monitoring modes. The following mass transitions were monitored: 422.2 to 377 m/z, (topotecan M+H) and 428.2 to 377 m/z (topotecan d6 M+H). The calibration standard range was 0.5 ng/ml to 10 ng/ml.

Data set [2] concerns RD rhabdomyosarcoma cell line. Type of data set: cell-based. Here is the method: (§1) Materials: The cells were cultured at 37° C. in 5% CO2 in a-MEM (Multicell; Wisent, Inc., St. Bruno, Quebec, Canada) with 10% fetal bovine serum (FBS; Life Technologies, Grand Island, N.Y.) and 1% antibiotic mixture, containing 10000 IU penicillin and 10000 μg/ml streptomycin (Multicell; Wisent, Inc., St. Bruno, Quebec, Canada). Trypsin-EDTA, containing 0.05% trypsin and 0.53 mM EDTA was also purchased from Multicell; Wisent, Inc., St. Bruno, Quebec, Canada.
(§2) Procedure: A total of 20,000 cells were plated in each well of 48 well-plates and incubated at 37° C. in 5% CO2. After 48 h, the cells were treated with various concentrations of drugs. After 72 h of treatment, the cell viability was determined by alamar blue assay.

The test system of data set [3] is Rh30 rhabdomyosarcoma cell line. Type of data set: cell-based. How it is done: as §1, §2
Data set [4] concerns KHOS osteosarcoma cell line. The format is cell-based. How it is done:
as §1, §2

The test system of a further data set is SK-N-BE(2) xenograft. Put plainly: SK-N-BE(2) neuroblastoma xenograft model. Type of data set: in vivo, NOD/SCID mice. Conditions: for survival compared to control: daily oral gavage 56 days, TP 1.0 mg/Kg topotecan, PZ 150 mg/Kg pazopanib, TP+PZ both. How it is done:
(§3) 1×10^6 SK-N-BE(2) cells or 30,000 NB12 cells were implanted subcutaneously into the inguinal fat pad of each of non-obese diabetic/severe combined immune deficient (NOD/SCID) mice. […] The criteria for end point were tumor sizes exceeding 2.0 cms in diameter or animals showing signs of morbidity. The tumor sizes were measured on a daily basis until the end point or sacrifice. The long (D) and short diameters (d) were measured with calipers. Tumor volume (cm^3) was calculated as V=0.5×D×d^2. When end point was reached, the animals were sacrificed by cervical dislocation. Tumors were excised and were fixed in 10% formalin solution.
In the group of animals implanted with SK-N-BE(2) cells palpable tumors started appearing approximately two weeks after cell implantation and took an additional week to reach 0.5 cm in diameter, after which the treatment was started. The effect of treatment was assessed by measuring regression of tumors and by survival times. Drugs were administered daily over a period of 56 days, and the animals belonging to the TP+PZ group were also retreated from the 103rd day to evaluate the impact of resuming treatment on reversing drug resistance. Retreatment was continued until the 125th day, after which the mice were sacrificed.

A further data set concerns NB12 xenograft. Put plainly: NB12 TIC xenograft model. The format is in vivo, NOD/SCID mice. Conditions: for tumor growth compared to control: daily oral gavage, TP 1.0 mg/Kg, PZ 150 mg/Kg, TP+PZ both. Here is the method:
as §3

For data set [5], the system named is SH-SY5Y neuroblastoma cell line. Briefly: In-vitro cytotoxicity, Alamar Blue cell viability. Type of data set: cell-based. The conditions noted are these: 72 h. The source says:
(§4) SK-N-BE(2) (MYCN amplified) and SH-SY5Y (non-MYCN amplified neuroblastoma cell lines) were obtained from American Type Culture Collection (ATCC) (Manassas, Va.); BE(2)-c sub-clone of SK-N-BE(2) was obtained from Dr. Michelle Haber (Children's Cancer Institute for Medical Research, Lowry Cancer Research Centre, Randwick, Australia); Human Umbilical Vein Endothelial Cells (HUVECs) were obtained from Dr. Herman Yeger (The Hospital for Sick Children, Toronto, Ontario, Canada) and Tumor Initiating (TIC) cell lines NB12 and NB88, were obtained from Dr. David Kaplan (The Hospital for Sick Children, Toronto, Ontario, Canada). TICs NB12 and NB88 were isolated from the bone marrow metastases of relapsed high-risk neuroblastoma patients. Neuroblastoma cell lines SK-N-BE(2) and SH-SY5Y were grown in alpha-MEM containing 10% fetal bovine serum and 1% antibiotic mixture in humidified atmosphere at 37° C. with 5% CO2. NB12 and NB 88 were cultured as described previously.
(§5) Cell viability was determined by Alamar Blue assay. Alamar blue (10% of total volume was added to each well three hours prior to fluorometric detection). Fluorometric detection was performed using the SPECTRAmax gemini Spectrophotometer at excitation wavelength of 540 nm and emission wavelength of 590 nm.
For orientation: Alamar Blue is a resazurin reagent that responds to reducing activity.

Data set [6] relates to SK-N-BE(2) neuroblastoma cell line. Briefly: In-vitro cytotoxicity, Alamar Blue cell viability. The format is cell-based. The conditions noted are these: for IC50: Homo sapiens, SKNBE2, 72 h.
Text: as §4, §5

A further data set has as its system Rh30 xenograft. Briefly: RH30 rhabdomyosarcoma mouse xenograft model. The conditions noted are these: for tumor growth rate: daily oral up to 56 days, pazopanib 150 mg/Kg, LDM topotecan 1.0 mg/kg, combination both.

The term IC50 denotes the concentration at which inhibition is half-maximal. A high value points to weaker potency.

Structures are written as SMILES. Values after ≈ are worked out from the molar mass of the structure shown. Where two headings read alike, the source gives them in different places.

For `Cc1ccc(Nc2nccc(N(C)c3ccc4c(C)n(C)nc4c3)n2)cc1S(N)(=O)=O` [pazopanib, 5-[[4-[(2,3-dimethyl-2H-indazol-6-yl)methylamino]-2-pyrimidinyl]amino]-2-methylbenzenesulfonamide], the “time optimal plasma concentration of pazopanib was maintained” value in [1] (PZ group) and in data set [1] (TP+PZ group) was “at least 18 h” in each case. The “time to peak plasma concentration of pazopanib” value in [1] (PZ group, single oral 150 mg/Kg pazopanib) was found to be 2 h; in data set [1] (TP+PZ group, single oral 150 mg/Kg pazopanib+1.0 mg/Kg topotecan), 2 h. Besides, the “cell viability / cytotoxicity” value in data set [2], in data set [3] and in data set [4] was “did not show cytotoxicity” in each case. Moreover, the “survival compared to control” value in the data set with SK-N-BE(2) xenograft is reported as “significantly enhanced survival”. Moreover, in the data set with NB12 xenograft, the “tumor growth compared to control” value is given as “No significant difference”. Further, the “viability of SH-SY5Y” value in [5] (up to 5000 ng/ml) is “did not affect the viabilities”. For the same molecule, the “viability of SK-N-BE(2)” value in data set [6] (up to 5000 ng/ml, 72 h) is recorded as “did not affect the viabilities”. Moreover, the tumor growth rate result in the data set with Rh30 xenograft is recorded as “delayed the tumor growth rate”.

For `CC[C@@]1(O)C(=O)OCc2c1cc1n(c2=O)Cc2cc3c(CN(C)C)c(O)ccc3nc2-1` [topotecan], the “trough concentration of topotecan” value is 0.77 ng/mL in data set [1] (TP group) and 2.79 ng/mL in data set [1] (TP+PZ group). Also, the “peak plasma concentration of topotecan” value in data set [1] (TP group, single oral 1.0 mg/Kg topotecan) turned out to be 19.75 ng/mL; in data set [1] (TP+PZ group) it was 33.05 ng/mL. Besides, the “cell viability / cytotoxicity” value in [2] (72 h treatment), in data set [3] (72 h treatment) and in data set [4] (72 h treatment) was “dose-dependent reduction” in each case. In the data set on SK-N-BE(2) xenograft (TP 1.0 mg/Kg vs PZ 150 mg/Kg, daily oral), the “tumor growth rate, TP versus PZ group” value was “No significant difference”. In addition, in the data set on SK-N-BE(2) xenograft, the “survival compared to control” value was “significantly enhanced survival”. Moreover, the “survival compared to control and PZ groups” value with NB12 xenograft (daily oral gavage until day 83, P<0.005) was “significantly enhanced”. In addition, the “tumor growth compared to control” value in the data set with NB12 xenograft is recorded as “significantly reduced”. Also, the IC50 worked out at 0.0053 µg/mL (≈ 0.0126 µM) in data set [5] (Homo sapiens, SH-SY5Y, topotecan alone); 0.065 µg/mL (≈ 0.154 µM) in data set [6] (topotecan alone); 0.0351 µg/mL (≈ 0.0833 µM) in data set [6] (topotecan with addition of 5000 ng/ml pazopanib, P=0.046). Besides, the “efficacy relative to PZ, TP+PZ and intermittent dosing” value with Rh30 xenograft (LDM topotecan 1.0 mg/kg daily oral) is recorded as “less effective”. For the same molecule, in the data set on Rh30 xenograft, the tumor growth rate result is given as “delayed the tumor growth rate”.

Source of the values: US8709420B2 (GlaxoSmithKline Intellectual Property Limited, priority 2010, dated 2014).
